ED50 data for one molecule are collected here from US5929249A, “Substituted imidazolyl-alkyethio-aldanoic acids” (SmithKline Beecham Corporation, priority 1992, dated 1999).

Structures are written as SMILES.

The test concerns pressor response to angiotensin II. The test can be described thus: Inhibition of pressor response to angiotensin II in conscious rats. Format: in vivo. As to conditions: Rattus norvegicus, i.v., intravenous angiotensin II 250 mg/kg [sic], change in mean arterial pressure, read-out: IC50 (dose of compound needed to produce 50% inhibition of the control response to angiotensin II). On the procedure: Angiotensin II antagonist activity of the compounds of Formula (I) is assessed by in vitro and in vivo methods. In vitro antagonist activity is determined by the ability of the compounds to compete with ^125 I-angiotensin II for binding to vascular angiotensin II receptors and by their ability to antagonize the contractile response to angiotensin II in the isolated rabbit aorta. In vivo activity is evaluated by the efficacy of the compounds to inhibit the pressor response to exogenous angiotensin II in conscious rats and to lower blood pressure in a rat model of renin dependent hypertension.
Rats are prepared with indwelling femoral arterial and venous catheters and a stomach tube (Gellai et al., Kidney Int. 15:419, 1979). Two to three days following surgery the rats are placed in a restrainer and blood pressure is continuously monitored from the arterial catheter with a pressure transducer and recorded on a polygraph. The change in mean arterial pressure in response to intravenous injections of […] angiotensin II is compared at various time points prior to and following the administration of the compounds intravenously or orally at doses of 0.1 to 300 mg/kg. The dose of compound needed to produce 50% inhibition of the control response to angiotensin II (IC50) is used to estimate the potency of the compounds. […]

`CCCCc1ncc(CSc2ccccc2C(=O)O)n1Cc1ccc(C(=O)O)cc1` [S-[(2-n-Butyl-1-{(4-carboxyphenyl)methyl}-1H-imidazol-5-yl)methyl]thiosalicyclic Acid]: the ED50 is ~0.5 mg/kg.
